Common to all, as to experiment: ≥ marks a high value that may be exact or a test limit, other limits are often not marked, values filed in µg/mL are converted to µM
The test system of experiment [1] is Bacillus cereus NCDC 0240.
Experiment [2] deals with Salmonella enterica subsp. enterica serovar Typhimurium ATCC 14028.
The test system of experiment [3] is Escherichia coli MTCC 0723.
Experiment [4] deals with Listeria monocytogenes ATCC 19111.
The subject of experiment [5] is Pseudomonas aeruginosa ATCC 27853.
In experiment [6] the test system is Staphylococcus aureus ATCC 29213.
Experiment [7] deals with Staphylococcus aureus NCDC 0111.
Experiment [8] concerns Pseudomonas aeruginosa NCDC 0105.
Experiment [9] concerns Acinetobacter johnsonii NCDC 0072.
In experiment [10] the test system is Escherichia coli IS37#.
Experiment [11] relates to Candida parapsilosis ATCC 22019.
Experiment [12] relates to Escherichia coli ATCC 25922.
Experiment [13] concerns Pseudomonas aeruginosa CMCCB 1010.
Experiment [14] deals with Enterococcus faecalis ATCC 29212.
In experiment [15] the test system is Klebsiella pneumoniae IS59#.
Experiment [16] concerns Klebsiella pneumoniae ATCC 700603.
For experiment [17], the system named is Escherichia coli IS117#.
Experiment [18] relates to Candida albicans ATCC 2002.
The subject of experiment [19] is Candida albicans ATCC 90028.
The subject of experiment [20] is Staphylococcus aureus ATCC 25923.
The subject of experiment [21] is Shigella dysenteriae.
Experiment [22] concerns Enterobacter cloacae ATCC 13047.
Experiment [23] deals with Listeria ivanovii.
Experiment [24] has as its system Salmonella enterica subsp. enterica serovar Enteritidis.
In experiment [25] the test system is Klebsiella pneumoniae ATCC 13883.
For experiment [26], the system named is Staphylococcus aureus ST1065.
Experiment [27] concerns Escherichia coli ML-35p.
The subject of experiment [28] is Saccharomyces cerevisiae.
Experiment [29] has as its system Staphylococcus aureus ATCC BAA-44.
Experiment [30] relates to Legionella pneumophila ATCC 33155.
The subject of experiment [31] is Leishmania infantum (promastigote).
The test system of experiment [32] is Acinetobacter baumannii ATCC 19606.
In experiment [33] the test system is Legionella longbeachae ATCC 33484.
Experiment [34] deals with Staphylococcus aureus ATCC 43300.
The test system of experiment [35] is Legionella pneumophila Paris.
Experiment [36] deals with Streptococcus pyogenes ATCC 19615.
Experiment [37] deals with Legionella feeleii ATCC 35072.
Experiment [38] relates to Escherichia coli K12 MG1655.
The subject of experiment [39] is Staphylococcus aureus 68 HER 1049.
Experiment [40] concerns Pseudomonas aeruginosa DM23155.
Experiment [41] concerns Klebsiella pneumoniae DM4299.
In experiment [42] the test system is Escherichia coli IS218#.
The subject of experiment [43] is Pseudomonas aeruginosa IS350#.
The subject of experiment [44] is Staphylococcus aureus IS10#.

Converted amounts (≈) assume the structure as drawn.

For the compound `CC[C@H](C)[C@H](NC(=O)[C@@H](N)CCCN=C(N)N)C(=O)N[C@@H](CCCN=C(N)N)C(=O)N[C@@H](Cc1ccccc1)C(=O)N1CCC[C@H]1C(=O)N[C@@H](Cc1c[nH]c2ccccc12)C(=O)N1CCC[C@H]1C(=O)N[C@@H](Cc1c[nH]c2ccccc12)C(=O)N[C@@H](CCCN=C(N)N)C(=O)N[C@@H](Cc1c[nH]c2ccccc12)C(=O)N1CCC[C@H]1C(=O)N[C@@H](Cc1c[nH]c2ccccc12)C(=O)N[C@@H](Cc1c[nH]c2ccccc12)C(=O)N1CCC[C@H]1C(=O)N[C@@H](CCCN=C(N)N)C(=O)N[C@@H](Cc1ccccc1)C(=O)N[C@@H](CCCN=C(N)N)C(=O)NCC(=O)O` [RIRFPWPWRWPWWPRFRG], the MIC in experiment [1] stood at 1.5 µM (≈ 3.87 µg/mL); in [2], 50 µM (≈ 129 µg/mL); in experiment [3], 6 µM (≈ 15.5 µg/mL); in [4], 6 µM (≈ 15.5 µg/mL); in experiment [5], 25 µM (≈ 64.6 µg/mL); in [6] it was 6 µM (≈ 15.5 µg/mL). Besides, the MIC is 12.5 µM (≈ 32.3 µg/mL) in experiment [7], not below 50 µM in experiment [8] and not below 50 µM in [9].
As for `C[C@@H](O)[C@@H]1NC(=O)CNC(=O)[C@H](CCCCN)NC(=O)[C@H](Cc2ccccc2)NC(=O)[C@@H](NC(=O)[C@H](Cc2ccccc2)NC(=O)[C@@H](N)CCCN=C(N)N)CSSC[C@@H](C(=O)NCC(=O)O)NC(=O)[C@@H]2CCCN2C1=O` [RFCFKGTPCG], the MIC in experiment [10] is not below 44.8 µM; in experiment [11], 17.9 µM (≈ 20 µg/mL); in experiment [12], 8.97 µM (≈ 9.98 µg/mL); in experiment [13] it was not below 44.8 µM; in experiment [14] it was 17.9 µM (≈ 20 µg/mL); in experiment [15], not below 44.8 µM. In addition, the MIC is 17.9 µM (≈ 20 µg/mL) in experiment [16]; not below 44.8 µM in [17]; 17.9 µM (≈ 20 µg/mL) in experiment [18]; 17.9 µM (≈ 20 µg/mL) in [19]; 4.48 µM (≈ 4.99 µg/mL) in experiment [20]; 17.9 µM (≈ 20 µg/mL) in experiment [21]. The compound further returned an MIC in experiment [22] of 8.97 µM (≈ 9.98 µg/mL).
For the compound `CC[C@H](C)[C@H](NC(=O)CNC(=O)[C@H](CCCCN)NC(=O)[C@H](CC(C)C)NC(=O)[C@@H](N)Cc1ccccc1)C(=O)N[C@H](C(=O)NCC(=O)N[C@@H](CCSC)C(=O)N[C@@H](CC(C)C)C(=O)NCC(=O)N[C@@H](CCCCN)C(=O)N[C@@H](CC(C)C)C(=O)N[C@@H](Cc1ccccc1)C(N)=O)C(C)C` [FLKGIVGMLGKLF], the MIC in [23] was 3 µM (≈ 4.27 µg/mL); in [24] it was 6 µM (≈ 8.53 µg/mL); in experiment [25], 3 µM (≈ 4.27 µg/mL); in [11], 25 µM (≈ 35.5 µg/mL); in experiment [26] it was 3 µM (≈ 4.27 µg/mL); in experiment [12], 3 µM (≈ 4.27 µg/mL). The minimal inhibitory concentration (MIC) in experiment [27] came out at 3 µM (≈ 4.27 µg/mL); in [28] it was 3 µM (≈ 4.27 µg/mL); in [14], 6 µM (≈ 8.53 µg/mL); in experiment [29], 3 µM (≈ 4.27 µg/mL); in [30], 3.12 µM (≈ 4.44 µg/mL); in [5] it was 6 µM (≈ 8.53 µg/mL). Besides, the MIC in experiment [31] came to 10 µM (≈ 14.2 µg/mL); in experiment [19], 6 µM (≈ 8.53 µg/mL); in [32], 3 µM (≈ 4.27 µg/mL); in [33] it was 3.12 µM (≈ 4.44 µg/mL); in experiment [34], 3 µM (≈ 4.27 µg/mL); in experiment [20], 3 µM (≈ 4.27 µg/mL). Moreover, the figures for the MIC in [35], in experiment [36] and in [37] were 3.12 µM (≈ 4.44 µg/mL), 1 µM (≈ 1.42 µg/mL) and 3.12 µM (≈ 4.44 µg/mL), respectively.
As for `CC[C@H](C)[C@H](NC(=O)CNC(=O)[C@H](CC(C)C)NC(=O)[C@H](Cc1ccccc1)NC(=O)[C@H](CC(C)C)NC(=O)[C@H](CCCCN)NC(=O)[C@H](Cc1c[nH]c2ccccc12)NC(=O)[C@@H](N)CCCCN)C(=O)N[C@@H](CC(C)C)C(=O)N[C@@H](C)C(=O)N[C@H](C(=O)N[C@@H](CC(C)C)C(=O)N[C@@H](CCCCN)C(=O)N[C@H](C(=O)N[C@@H](CC(C)C)C(=O)O)C(C)C)C(C)C` [KWKLFLGILAVLKVL], the MIC in [38] and in [39] was 18.4 µM (≈ 32 µg/mL) throughout.
Turning to `CC(=O)N[C@@H](CCCN=C(N)N)C(=O)NCC(=O)N[C@@H](CCCN=C(N)N)C(=O)N[C@@H](CCCCN)C(=O)N[C@H](C(=O)N[C@H](C(=O)N[C@@H](CCCN=C(N)N)C(=O)N[C@@H](CCCN=C(N)N)C(=O)N[C@@H](CCCCN)C(=O)N[C@@H](CCCCN)C(=O)O)C(C)C)C(C)C` [RGRKVVRRKK], the MIC in experiment [12], in experiment [40] and in [41] was 6 µM (≈ 7.95 µg/mL) throughout.
Take `CC[C@H](C)[C@H](NC(=O)[C@@H](N)C(C)C)C(=O)N1CCC[C@H]1C(=O)N[C@@H](Cc1ccccc1)C(=O)N[C@H](C(=O)N[C@@H](C)C(=O)N[C@@H](CO)C(=O)N[C@H](C(=O)N[C@@H](C)C(=O)N[C@@H](C)C(=O)N[C@@H](CCC(=O)O)C(=O)N[C@@H](CCSC)C(=O)N[C@@H](CCSC)C(=O)N[C@@H](CCC(N)=O)C(=O)N[C@@H](Cc1cnc[nH]1)C(=O)N[C@H](C(=O)N[C@@H](Cc1ccc(O)cc1)C(=O)N[C@H]1CSSC[C@@H](C(=O)O)NC(=O)[C@H](CCCN=C(N)N)NC(=O)[C@H](CCCCN)NC(=O)[C@H](CO)NC(=O)[C@H](C)NC(=O)[C@H](C)NC1=O)C(C)C)C(C)C)C(C)C` [VIPFVASVAAEMMQHVYCAASKRC]: the MIC in experiment [42] was 19.1 µM (≈ 50 µg/mL); in [10], 19.1 µM (≈ 50 µg/mL); in experiment [43] it was 19.1 µM (≈ 50 µg/mL); in experiment [11], 7.66 µM (≈ 20 µg/mL); in experiment [12] it was 1.91 µM (≈ 5 µg/mL); in experiment [13], 3.83 µM (≈ 9.99 µg/mL). The MIC in experiment [14] was found to be 1.91 µM (≈ 5 µg/mL); in [44], 19.1 µM (≈ 50 µg/mL); in experiment [16], 3.83 µM (≈ 9.99 µg/mL); in experiment [5], 7.66 µM (≈ 20 µg/mL); in experiment [17], 7.66 µM (≈ 20 µg/mL); in experiment [18], 1.91 µM (≈ 5 µg/mL). In addition, the MIC in [19], in experiment [20], in experiment [21] and in experiment [22] was 3.83 µM (≈ 9.99 µg/mL) in each case.

(Values after DBAASP.)
